Tested on: participants with SSc-RP
Assay: Frequency of weekly RP attacks (all attacks; primary efficacy endpoint)
Assay type: in vivo, human
Conditions: for Weekly RP Attacks, Q3 / Weekly RP Attacks Change from Baseline, Max / Weekly RP Attacks Change from Baseline, Mean / Weekly RP Attacks Change from Baseline, Median / Weekly RP Attacks Change from Baseline, Min / Weekly RP Attacks Change from Baseline, Q1 / Weekly RP Attacks Change from Baseline, Q3 / Weekly RP Attacks Percent Change from Baseline, Max / Weekly RP Attacks Percent Change from Baseline, Mean / Weekly RP Attacks Percent Change from Baseline, Median / Weekly RP Attacks Percent Change from Baseline, Min / Weekly RP Attacks Percent Change from Baseline, Q1 / Weekly RP Attacks Percent Change from Baseline, Q3 / Weekly RP Attacks, Max / Weekly RP Attacks, Mean / Weekly RP Attacks, Median / Weekly RP Attacks, Min / Weekly RP Attacks, Q1 / Weekly RP Attacks Change from Baseline, Mean (SD) / Weekly RP Attacks Percent Change from Baseline, Mean (SD) / Weekly RP Attacks, Mean (SD): all attacks, tadalafil 5 mg daily
Text: Percent change from baseline evaluation for frequency of weekly RP attacks were or will be used as the primary efficacy variable. The sponsor-developed participant-informed diary will be used to record data. Frequency of weekly RP attacks is defined as the total number of RP attacks divided by the number of days with available diary data within the last 7 days of each dosing period then multiplied by 7. Total number of RP attacks during the last 7 days of screening period divided by the number of days with available data then multiplied by 7 will be used as baseline for the analysis of all periods. The variable will be calculated as follows:
Percentage change={(weekly RP attacks for the last 7 days of each dosing period−Baseline weekly RP attacks)/Baseline weekly RP attacks}*100%.
Absolute change=weekly RP attacks for the last 7 days of each dosing period−Baseline weekly RP attacks
Percent change from baseline evaluation for frequency of weekly RP attacks was and will be the primary efficacy endpoint. Frequency of weekly RP attacks is defined as the total number of RP attacks divided by the number of days with available diary data within the last 7 days of each dosing period then multiplied by 7. Total number of RP attacks during the last 7 days of screening period divided by the number of days with available data then multiplied by 7 will be used as baseline for the analysis of all periods.
Percent change from baseline evaluation for frequency of weekly RP attacks were the primary efficacy endpoint. Data collected in the last 7 days of each dosing period were used for this analysis. Screening assessments were used as baseline for the analysis of all periods. No multiple comparison adjustment were used to control alpha for the multiple comparisons. Mixed effects model were used for analysis of the primary endpoint according to the crossover design. Other efficacy endpoints of continuous variables were analyzed using similar methodology. For nominal data, chi-square tests were applied. Generalized Estimating Equations method were used, as appropriate, for adjusting for potential confounding factors. In addition, the final analysis assessed whether in this study of severe Raynaud's disease participants, the minimally important difference, previously concluded of 14-15 points on the 100 point RCS scale had been achieved in the cilnidipine dose group. It also recorded the percentage of participants achieving a PASS (34 point difference from baseline on a 0-100 VAS) in each treatment group.

[1] = by baseline RCS, first subgroup, cilnidipine 10 mg
[2] = by baseline RCS, first subgroup, cilnidipine 20 mg
[3] = by baseline RCS, first subgroup, pooled cilnidipine 10 mg and 20 mg
[4] = pooled cilnidipine 10 mg and 20 mg

COCCOC(=O)C1=C(C)NC(C)=C(C(=O)OC/C=C/c2ccccc2)C1c1cccc([N+](=O)[O-])c1 (stereo not shown) [Cilnidipine, cilnidipine]
−6.67: Weekly RP Attacks Change from Baseline, Mean [2] | Weekly RP Attacks Change from Baseline, Median [2] | Weekly RP Attacks Change from Baseline, Median (cilnidipine 20 mg)
−6.67 (3.300): Weekly RP Attacks Change from Baseline, Mean (SD) (cilnidipine 20 mg)
−46.4%: Weekly RP Attacks Percent Change from Baseline, Min [2] | Weekly RP Attacks Percent Change from Baseline, Min [3] | Weekly RP Attacks Percent Change from Baseline, Min (cilnidipine 20 mg) | Weekly RP Attacks Percent Change from Baseline, Min [4]
−9.0: Weekly RP Attacks Change from Baseline, Min [2] | Weekly RP Attacks Change from Baseline, Min [3] | Weekly RP Attacks Change from Baseline, Min (cilnidipine 20 mg) | Weekly RP Attacks Change from Baseline, Min [4]
−4.3: Weekly RP Attacks Change from Baseline, Max [2] | Weekly RP Attacks Change from Baseline, Max [3] | Weekly RP Attacks Change from Baseline, Max (cilnidipine 20 mg) | Weekly RP Attacks Change from Baseline, Max [4]
−28.13%: Weekly RP Attacks Percent Change from Baseline, Mean [1] | Weekly RP Attacks Percent Change from Baseline, Median [1] | Weekly RP Attacks Percent Change from Baseline, Q3 [3] | Weekly RP Attacks Percent Change from Baseline, Mean (SD) (cilnidipine 10 mg) | Weekly RP Attacks Percent Change from Baseline, Median (cilnidipine 10 mg) | Weekly RP Attacks Percent Change from Baseline, Q3 [4]
11.0: Weekly RP Attacks, Max [2] | Weekly RP Attacks, Max (cilnidipine 20 mg)
13.00 (9.165): Weekly RP Attacks, Mean (SD) [4]
13.00: Weekly RP Attacks, Mean [3]
−45.00%: Weekly RP Attacks Percent Change from Baseline, Q3 [2] | Weekly RP Attacks Percent Change from Baseline, Median [3] | Weekly RP Attacks Percent Change from Baseline, Q3 (cilnidipine 20 mg) | Weekly RP Attacks Percent Change from Baseline, Median [4]
23.00, 23.00: Weekly RP Attacks, Q1 [1] | Weekly RP Attacks, Q3 [1] | Weekly RP Attacks, Q1 (cilnidipine 10 mg) | Weekly RP Attacks, Q3 (cilnidipine 10 mg)
−45.71%: Weekly RP Attacks Percent Change from Baseline, Mean [2] | Weekly RP Attacks Percent Change from Baseline, Median [2] | Weekly RP Attacks Percent Change from Baseline, Median (cilnidipine 20 mg)
−31 to −40%: reduction in weekly attack frequency, typical attacks (pooled cilnidipine monotherapy or cilnidipine plus tadalafil treated patients (n=7))
−9.0, −9.0: Weekly RP Attacks Change from Baseline, Max [1] | Weekly RP Attacks Change from Baseline, Min [1] | Weekly RP Attacks Change from Baseline, Max (cilnidipine 10 mg) | Weekly RP Attacks Change from Baseline, Min (cilnidipine 10 mg)
43%_vs 23% with: Attacks reduced (summary of data (Table S))
8.00 (4.243): Weekly RP Attacks, Mean (SD) (cilnidipine 20 mg)
43%: reduction in weekly attack frequency (primary endpoint) (cilnidipine 20 mg, 19% with placebo)
−28.13, −28.13%: Weekly RP Attacks Percent Change from Baseline, Q1 [1] | Weekly RP Attacks Percent Change from Baseline, Q3 [1] | Weekly RP Attacks Percent Change from Baseline, Q1 (cilnidipine 10 mg) | Weekly RP Attacks Percent Change from Baseline, Q3 (cilnidipine 10 mg)
23.0, 23.0: Weekly RP Attacks, Max [1] | Weekly RP Attacks, Min [1] | Weekly RP Attacks, Max (cilnidipine 10 mg) | Weekly RP Attacks, Min (cilnidipine 10 mg)
−4.33: Weekly RP Attacks Change from Baseline, Q3 [2] | Weekly RP Attacks Change from Baseline, Q3 [3] | Weekly RP Attacks Change from Baseline, Q3 (cilnidipine 20 mg) | Weekly RP Attacks Change from Baseline, Q3 [4]
−9.00: Weekly RP Attacks Change from Baseline, Mean [1] | Weekly RP Attacks Change from Baseline, Median [1] | Weekly RP Attacks Change from Baseline, Q1 [2] | Weekly RP Attacks Change from Baseline, Median [3] | Weekly RP Attacks Change from Baseline, Q1 [3] | Weekly RP Attacks Change from Baseline, Mean (SD) (cilnidipine 10 mg) | Weekly RP Attacks Change from Baseline, Median (cilnidipine 10 mg) | Weekly RP Attacks Change from Baseline, Q1 (cilnidipine 20 mg) | Weekly RP Attacks Change from Baseline, Median [4] | Weekly RP Attacks Change from Baseline, Q1 [4]
23.0: Weekly RP Attacks, Max [3] | Weekly RP Attacks, Max [4]
−9.00, −9.00: Weekly RP Attacks Change from Baseline, Q1 [1] | Weekly RP Attacks Change from Baseline, Q3 [1] | Weekly RP Attacks Change from Baseline, Q1 (cilnidipine 10 mg) | Weekly RP Attacks Change from Baseline, Q3 (cilnidipine 10 mg)
−28.1, −28.1%: Weekly RP Attacks Percent Change from Baseline, Max [1] | Weekly RP Attacks Percent Change from Baseline, Min [1] | Weekly RP Attacks Percent Change from Baseline, Max (cilnidipine 10 mg) | Weekly RP Attacks Percent Change from Baseline, Min (cilnidipine 10 mg)
−7.44 (2.694): Weekly RP Attacks Change from Baseline, Mean (SD) [4]
−45.71 (1.010) Percent: Weekly RP Attacks Percent Change from Baseline, Mean (SD) (cilnidipine 20 mg)
−46.43%: Weekly RP Attacks Percent Change from Baseline, Q1 [2] | Weekly RP Attacks Percent Change from Baseline, Q1 [3] | Weekly RP Attacks Percent Change from Baseline, Q1 (cilnidipine 20 mg) | Weekly RP Attacks Percent Change from Baseline, Q1 [4]
5.00: Weekly RP Attacks, Q1 [2] | Weekly RP Attacks, Q1 [3] | Weekly RP Attacks, Q1 (cilnidipine 20 mg) | Weekly RP Attacks, Q1 [4]
−28.1%: Weekly RP Attacks Percent Change from Baseline, Max [3] | Weekly RP Attacks Percent Change from Baseline, Max [4]
8.00: Weekly RP Attacks, Mean [2] | Weekly RP Attacks, Median [2] | Weekly RP Attacks, Median (cilnidipine 20 mg)
5.0: Weekly RP Attacks, Min [2] | Weekly RP Attacks, Min [3] | Weekly RP Attacks, Min (cilnidipine 20 mg) | Weekly RP Attacks, Min [4]
23.00: Weekly RP Attacks, Q3 (excluding outliers, pooled cilnidipine 10 mg and 20 mg) | Weekly RP Attacks, Mean [1] | Weekly RP Attacks, Median [1] | Weekly RP Attacks, Q3 [3] | Weekly RP Attacks, Mean (SD) (cilnidipine 10 mg) | Weekly RP Attacks, Median (cilnidipine 10 mg) | Weekly RP Attacks, Q3 [4]
−7.44: Weekly RP Attacks Change from Baseline, Mean [3]
11.00: Weekly RP Attacks, Q3 [2] | Weekly RP Attacks, Median [3] | Weekly RP Attacks, Q3 (cilnidipine 20 mg) | Weekly RP Attacks, Median [4]
−45.0%: Weekly RP Attacks Percent Change from Baseline, Max [2] | Weekly RP Attacks Percent Change from Baseline, Max (cilnidipine 20 mg)
−39.85 (10.180) Percent: Weekly RP Attacks Percent Change from Baseline, Mean (SD) [4]
−39.85%: Weekly RP Attacks Percent Change from Baseline, Mean [3]

Reference: patent US20240358693A1, “METHODS OF TREATING PAIN” (Aisa Pharma, Inc., priority 2023, published 2024)
